Data on 14 compounds can be found in patent US20260151403A1, “NEK7 DEGRADERS AND METHODS OF USE THEREOF” (Captor Therapeutics S.A., priority 2022, published 2026).

The target of test [1] is T1, [NEK7]-[compound of formula (I)]-[CRBN/DDB1] complex (Homo sapiens, UniProt Q8TDX7+Q96SW2). Put plainly: HTRF ternary complex assay. It counts as binding. As to conditions: dose-response, 180 min at 25° C.; read-out: HTRF ternary complex Average pEC50 by molecule (converted). As for the experimental part: The effect of the molecular glue compounds of the invention on the formation of a ternary complex composed of [NEK7]-[compound of formula (I)]-[CRBN/DDB1] was investigated.
Mix solution of proteins and reagents was prepared: • 24 nM NEK7, 52.8 nM 6×His-CRBN/Strep-DDB1, 3 nM of Streptavidin-Eu cryptate […] and 6.67 nM of Anti-6×his-d2 […] was prepared in PPI Europium detection buffer (Cisbio) with 1 mM DTT.
The tested compounds in dose-response were dispensed onto a white 384-well low volume plate (Greiner, 784075). DMSO was backfilled to all wells, resulting in a final DMSO content of 0.5%. Wells containing only DMSO served as background.
The plate was sealed with transparent film and shaken using a VibroTurbulator for 60 sec at level 3.
The plate was then spun down shortly (10 s, 1000 rcf) and incubated at 25° C. for 180 min.
The read-out was performed with plate reader (Pherastar, BMG Labtech) in time resolved fluorescence mode. Filterset: TR 337 665 620.
The results were analyzed as follows: • 1) an average of fluorescence for background signal was calculated and used as a negative control; • 2) raw fluorescence values for tested compounds were normalized against negative controls; • 3) saturation curve was fitted to specific binding with Hill slope model; • 4) EC50 and pEC50 values were determined.

In the next test the target is NEK7-HiBiT protein (Homo sapiens, UniProt Q8TDX7). Put plainly: NEK7-HiBiT degradation assay (Nano-Glo HiBiT Lytic Assay) in HEK293 NEK7-HiBiT cells. The class given is cell-based. As to conditions: 24 h, conc. 0.1, 1 and 10 μM tested, concentration of the table values not stated, mean of 3 technical replicates. As for the experimental part:
HEK293 NEK7-HiBiT cells were generated using CRISPR-Cas9 system. HEK293 cells were transformed with pSpCas9-BB-2A-Puro v2.0 plasmid carrying gRNA targeting the N-terminus of NEK7 and ssODN template containing the HiBiT tag sequence with flanking homology sequences. Neon Transfection System (Thermo Fisher Scientific) was used for electroporation. HEK293 NEK7-HiBiT cells were cultured with DMEM Glutamax (Gibco) supplemented with 10% heat inactivated FBS (Gibco). After transfection the culture medium was changed to DMEM Glutamax with 10% heat-inactivated FBS and 1% Penicillin-Streptomycin (Biowest) supplemented with Puromycin (2 μg/ml; Invivogen) for clonal selection. In order to isolate single cell clones for further validation and analysis, limiting dilution cloning in 96-well plates was performed. When the single clones reached confluency, HiBiT Lytic Assay (Promega) was performed in order to identify HiBiT positive clones. The clone selected for further studies was verified and validated using genotyping and HiBiT Blotting (Promega).
Selected clone of HEK293 NEK7-HiBiT cells was maintained in the DMEM-Glutamax medium supplemented with 10% of heat-inactivated FBS (Gibco) and 1% of Penicillin-Streptomycin Solution 100x (Biowest) at 37° C., 5% CO2 and subcultured every 2-3 days.
For Nano-Glo HiBiT Lytic Assay HEK293 NEK7-HiBiT cells were seeded at the density 2×10^3 cells in triplicates in the 40 μL of growth medium per single well on 384 well plate (Greiner Bio-One). Compounds or DMSO were added to treatment plates using Echo555 Liquid Handler and incubated at 37° C., 5% CO2 for 24 hours. After incubation 40 μL of Nano-Glo HiBiT Lytic Reagent (prepared according to the manufacturer protocol) were added to 40 μL of the cell culture medium present in each well. The plate content was briefly mixed (460 rpm) on an orbital shaker to ensure cell lysis. The plate was left at RT protected from light for another 10 min to stabilize the luminescent signal. The luminescence signal was measured using CLARIOstar Multimode Plate Reader. Focus and gain were adjusted to DMSO treated cells. The results were calculated as the NEK7-HiBiT % relative to the DMSO control of 3 technical replicates relative to the DMSO control.
HEK293 NEK7-HiBiT cells were treated with the compounds (conc. 0.1, 1 and 10 μM) or DMSO for 24 h. After incubation with compounds NEK7-HiBiT degradation was measured as a luminescence signal using CLARIOstar Multimode Plate reader.
Additionally, compounds reducing NEK7-HiBiT protein level by >=50% at 0.1 μM, were also identified.

Test [2] deals with T1, [NEK7]-[compound of formula (I)]-[CRBN/DDB1] complex. Put plainly: AlphaLISA dose response ternary complex formation assay. It counts as binding. As to conditions: 1 μM compound, normalized to maximum signal of Compound 2 (positive control) and DMSO background; for activation at 1 µM: read-out: Normalized AlphaLISA ternary complex average signal at 1 μM molecule. How it is done:
The effect of the molecular glue compounds of the invention on the formation of a ternary complex composed of [NEK7]-[compound of formula (I)]-[CRBN/DDB1] was investigated with two methods: AlphaLISA dose response assay or HTRF ternary complex assay.
Two types of protein solution were prepared: • 200 nM biotinylated NEK7, 40 μg/ml AlphaScreen Streptavidin-coated Donor Beads in HBS (10 mM HEPES, 150 mM NaCL, pH 7.4) buffer with 0.1% Tween-20 and 1 mM DTT, • 200 nM 6×His-CRBN/Strep-DDB1, 40 μg/ml AlphaLISA Anti-6×His Acceptor beads in HBS buffer with 0.1% Tween-20 and 1 mM DTT.
The prepared solutions were incubated at room temperature for 30 min and then the solution containing the donor beads was mixed with the solution containing the acceptor beads.
The tested compounds were dispensed onto a white 384-well AlphaPlate 384 SW. DMSO was backfilled to all wells, resulting in a final DMSO content of 2%. Wells containing only DMSO served as background. Next, 10 μl of solution with donor and acceptor beads was added to the wells.
The plate was sealed with transparent film and shaken using a VibroTurbulator for 60 sec at room temperature, level 3. The plate was then spun down shortly (10 s, 1000 rcf, room temperature) and incubated at 25° C. for 30 min.
The read-out was performed with PerkinElmer Enspire Multimode Plate Reader (method for AlphaLISA 384-well low volume, Filterset: λexc=680 nm, λem=615 nm).
The results were analyzed as follows: • 1) an average of luminescence for background signal was calculated and used as a negative control; • 2) average of the maximum measured luminescence for Compound 2 was calculated and used as an internal positive control; • 3) raw luminescence values were normalized against positive and negative controls; • 4) Normalized responses to Compound 2 were determined.
For orientation: Alpha assays give light when donor and acceptor beads are brought close together.

T1 sequence (Q8TDX7 whole entry): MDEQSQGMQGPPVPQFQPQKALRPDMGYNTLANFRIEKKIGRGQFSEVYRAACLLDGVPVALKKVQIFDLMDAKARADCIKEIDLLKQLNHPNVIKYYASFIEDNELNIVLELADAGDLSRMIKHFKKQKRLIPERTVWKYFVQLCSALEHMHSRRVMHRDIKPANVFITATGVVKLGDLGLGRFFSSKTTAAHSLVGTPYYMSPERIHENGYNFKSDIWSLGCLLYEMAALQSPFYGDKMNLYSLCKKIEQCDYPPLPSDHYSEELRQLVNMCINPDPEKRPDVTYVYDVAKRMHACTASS
T1 sequence (Q96SW2 whole entry): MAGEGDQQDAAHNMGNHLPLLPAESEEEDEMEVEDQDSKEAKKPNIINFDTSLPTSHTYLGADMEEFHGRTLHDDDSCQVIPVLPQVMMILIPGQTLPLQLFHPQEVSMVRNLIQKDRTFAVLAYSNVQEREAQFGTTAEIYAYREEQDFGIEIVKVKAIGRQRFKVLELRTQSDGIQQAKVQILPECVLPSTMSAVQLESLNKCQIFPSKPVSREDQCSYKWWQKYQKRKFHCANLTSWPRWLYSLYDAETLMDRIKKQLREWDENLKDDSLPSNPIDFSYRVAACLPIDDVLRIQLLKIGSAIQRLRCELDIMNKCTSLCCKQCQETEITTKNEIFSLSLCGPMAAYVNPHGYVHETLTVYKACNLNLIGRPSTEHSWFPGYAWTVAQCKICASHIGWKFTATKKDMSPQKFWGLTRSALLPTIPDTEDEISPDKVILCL
T1 sequence (Q16531 whole entry partner): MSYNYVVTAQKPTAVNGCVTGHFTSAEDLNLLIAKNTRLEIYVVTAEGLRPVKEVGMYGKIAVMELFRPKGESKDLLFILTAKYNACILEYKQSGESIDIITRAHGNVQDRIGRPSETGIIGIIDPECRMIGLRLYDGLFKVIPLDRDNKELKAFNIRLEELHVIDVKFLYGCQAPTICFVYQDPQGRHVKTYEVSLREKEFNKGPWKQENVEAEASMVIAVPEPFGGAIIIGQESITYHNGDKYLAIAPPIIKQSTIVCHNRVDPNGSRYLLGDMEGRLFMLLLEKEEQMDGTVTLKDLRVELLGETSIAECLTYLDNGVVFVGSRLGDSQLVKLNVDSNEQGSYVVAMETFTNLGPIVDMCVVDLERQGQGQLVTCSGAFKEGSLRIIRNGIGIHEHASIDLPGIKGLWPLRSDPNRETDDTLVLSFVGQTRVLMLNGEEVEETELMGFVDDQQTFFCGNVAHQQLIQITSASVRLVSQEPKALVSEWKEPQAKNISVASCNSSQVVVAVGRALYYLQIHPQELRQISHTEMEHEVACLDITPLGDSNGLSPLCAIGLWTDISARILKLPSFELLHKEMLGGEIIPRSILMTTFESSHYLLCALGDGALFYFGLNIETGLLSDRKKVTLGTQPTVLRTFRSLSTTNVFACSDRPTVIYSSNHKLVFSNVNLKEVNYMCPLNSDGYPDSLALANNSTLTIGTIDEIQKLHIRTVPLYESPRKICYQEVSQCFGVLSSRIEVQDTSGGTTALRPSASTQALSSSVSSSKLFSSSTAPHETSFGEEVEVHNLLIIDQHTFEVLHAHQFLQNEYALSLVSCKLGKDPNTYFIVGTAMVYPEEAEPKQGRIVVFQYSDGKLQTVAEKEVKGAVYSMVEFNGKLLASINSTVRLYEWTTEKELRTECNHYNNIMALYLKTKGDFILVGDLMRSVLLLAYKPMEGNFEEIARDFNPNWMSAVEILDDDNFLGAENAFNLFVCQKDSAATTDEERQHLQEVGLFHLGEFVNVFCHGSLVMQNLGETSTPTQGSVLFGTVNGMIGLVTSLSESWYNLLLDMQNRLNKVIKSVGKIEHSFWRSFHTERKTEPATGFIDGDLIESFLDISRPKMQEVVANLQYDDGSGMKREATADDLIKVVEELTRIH
Sequence of NEK7-HiBiT protein (Q8TDX7 whole entry): as the sequence (Q8TDX7 whole entry) above
Sequence of NEK7-HiBiT protein (Q96SW2 whole entry, further chain): as the sequence (Q96SW2 whole entry) above
Sequence of NEK7-HiBiT protein (Q16531 whole entry partner): as the sequence (Q16531 whole entry partner) above

Consider `O=C1CCC(N2Cc3cc(C4COCCO4)ccc3C2=O)C(=O)N1` (stereo not drawn) [Compound 68, 3-(5-(1,4-dioxan-2-yl)-1-oxoisoindolin-2-yl)piperidine-2,6-dione], for which, in test [1], the EC50 was 316 to 1000 nM. For the same compound, the “Levels of NEK7-HiBiT Protein (as a % of DMSO control)” value (shortened to “Levels … (as a % of DMSO control)”) at NEK7-HiBiT protein was “D (Levels of NEK7-HiBiT Protein ≥ 75%)”. Further, in test [2], the activation at 1 µM is 10 to 20%.

Turning to `O=C1CCC(N2Cc3cc(C4CCC(c5ccccc5)CN4)ccc3C2=O)C(=O)N1` (single isomer, unassigned) [32 Isomer 1, 3-(1-oxo-5-(5-phenylpiperidin-2-yl)isoindolin-2-yl)piperidine-2,6-dione], in test [1], the EC50 is greater than 3160 nM. At NEK7-HiBiT protein, the “Levels … (as a % of DMSO control)” value is listed as “D (Levels of NEK7-HiBiT Protein ≥ 75%)”. Besides, the “Normalized AlphaLISA ternary complex average signal at 1 μM molecule” value in test [2] is “C (Normalized activity > 10% and <20%)”.

`CC(=O)NC1CCC(c2ccc3c(c2)CN(C2CCC(=O)NC2=O)C3=O)NC1` (single isomer, unassigned) [33 Isomer 1, N-(6-(2-(2,6-dioxopiperidin-3-yl)-1-oxoisoindolin-5-yl)piperidin-3-yl)acetamide]: in test [1], the EC50 is 100 to 316 nM. In addition, at NEK7-HiBiT protein, the “Levels … (as a % of DMSO control)” value is given as “A (Levels of NEK7-HiBiT Protein ≤ 25%)”. Besides, in test [2], the activation at 1 µM lay in the range of 20 to 80%.

Regarding `O=C1CCC(N2Cc3cc(C4COCCN4)ccc3C2=O)C(=O)N1` (stereo not drawn) [Compound 61, 3-(5-(morpholin-3-yl)-1-oxoisoindolin-2-yl)piperidine-2,6-dione], the EC50 in test [1] was 100 to 316 nM. The “Levels … (as a % of DMSO control)” value at NEK7-HiBiT protein was “C (Levels of NEK7-HiBiT Protein > 50% and <75%)”. Moreover, the activation at 1 µM in test [2] is 10 to 20%.

For `CC(=O)Nc1ccc(-c2ccc3c(c2)CN(C2CCC(=O)NC2=O)C3=O)nc1` (stereo not drawn) [7(2), N-(6-(2-(2,6-dioxopiperidin-3-yl)-1-oxoisoindolin-5-yl)pyridin-3-yl)acetamide], the EC50 in test [1] was 100 to 316 nM. Moreover, the “Levels … (as a % of DMSO control)” value at NEK7-HiBiT protein was “B (Levels of NEK7-HiBiT Protein > 25% and ≤50%)”. Besides, the activation at 1 µM in test [2] is greater than 80%.

As for `O=C1CCC(N2Cc3cc(-c4ccc(C(F)(F)F)cn4)ccc3C2=O)C(=O)N1` (stereo not drawn) [16(2), 3-(1-oxo-5-(5-(trifluoromethyl)pyridin-2-yl)isoindolin-2-yl)piperidine-2,6-dione], in test [1], the EC50 was 316 to 1000 nM. Besides, the “Levels … (as a % of DMSO control)” value at NEK7-HiBiT protein is reported as “A (Levels of NEK7-HiBiT Protein ≤ 25%)”. Moreover, in test [2], the activation at 1 µM was greater than 80%.

With `O=C1CCC(N2Cc3cc(C4CSCCN4)ccc3C2=O)C(=O)N1` (stereo not drawn) [Compound 57, 3-(1-oxo-5-(thiomorpholin-3-yl)isoindolin-2-yl)piperidine-2,6-dione], in test [1], the EC50 is 100 to 316 nM. Besides, the “Levels … (as a % of DMSO control)” value at NEK7-HiBiT protein was “C (Levels of NEK7-HiBiT Protein > 50% and <75%)”. The activation at 1 µM in test [2] fell in the range of 20 to 80%.

For `O=C1CCC(N2C(=O)c3cccc4c(C5CCCCN5)ccc2c34)C(=O)N1` (stereo not drawn) [Compound 59, 3-(2-oxo-6-(piperidin-2-yl)benzo[cd]indol-1 (2H)-yl)piperidine-2,6-dione], the EC50 in test [1] is greater than 3160 nM. Also, the “Levels … (as a % of DMSO control)” value at NEK7-HiBiT protein is on record as “D (Levels of NEK7-HiBiT Protein ≥ 75%)”. In addition, the activation at 1 µM in test [2] is less than 10%.

As to `O=C1CCCC(N2Cc3cc(C4CCCCN4)ccc3C2=O)C(=O)N1` (stereo not drawn) [Compound 65, 3-(1-oxo-5-(piperidin-2-yl)isoindolin-2-yl)azepane-2,7-dione], the EC50 in test [1] was greater than 3160 nM. For the same compound, the “Levels … (as a % of DMSO control)” value on NEK7-HiBiT protein was “C (Levels of NEK7-HiBiT Protein > 50% and <75%)”. Also, the activation at 1 µM in test [2] is less than 10%.

In the case of `Cc1cc(C2CCCCN2)cc2c1C(=O)N(C1CCC(=O)NC1=O)C2` (stereo not drawn) [Compound 21, 3-(7-methyl-1-oxo-5-(piperidin-2-yl)isoindolin-2-yl)piperidine-2,6-dione], in test [1], the EC50 is greater than 3160 nM. The “Levels … (as a % of DMSO control)” value on NEK7-HiBiT protein is listed as “D (Levels of NEK7-HiBiT Protein ≥ 75%)”. For the same compound, the activation at 1 µM in test [2] is less than 10%.

On to `O=C1CCC(N2Cc3c(ccc(C4CCCCN4)c3F)C2=O)C(=O)N1` (stereo not drawn) [Compound 22, 3-(4-fluoro-1-oxo-5-(piperidin-2-yl)isoindolin-2-yl)piperidine-2,6-dione], for which the EC50 in test [1] is greater than 3160 nM. Further, the “Levels … (as a % of DMSO control)” value on NEK7-HiBiT protein is given as “A (Levels of NEK7-HiBiT Protein ≤ 25%)”. The activation at 1 µM in test [2] is less than 10%.

In the case of `O=C1CCC(N2Cc3cc(C4CCCCO4)sc3C2=O)C(=O)N1` (stereo not drawn) [Compound 73, 3-(6-oxo-2-(tetrahydro-2H-pyran-2-yl)-4,6-dihydro-5H-thieno[2,3-c]pyrrol-5-yl)piperidine-2,6-dione], the EC50 in test [1] was greater than 3160 nM. For the same compound, the “Levels … (as a % of DMSO control)” value on NEK7-HiBiT protein is recorded as “D (Levels of NEK7-HiBiT Protein ≥ 75%)”. In addition, in test [2], the activation at 1 µM is less than 10%.

On to `O=C1CCC(N2Cc3cc(C4CCC(c5ccccc5)CO4)ccc3C2=O)C(=O)N1` (single isomer, unassigned) [74 Isomer 1, 3-(1-oxo-5-(5-phenyltetrahydro-2H-pyran-2-yl)isoindolin-2-yl)piperidine-2,6-dione], for which the EC50 in test [1] is greater than 3160 nM. Moreover, the “Levels … (as a % of DMSO control)” value on NEK7-HiBiT protein was “D (Levels of NEK7-HiBiT Protein ≥ 75%)”. Moreover, the “Normalized AlphaLISA ternary complex average signal at 1 μM molecule” value in test [2] is given as “D (Normalized activity < 10%)”.

For `O=C1CCC(N2C(=O)c3ccc(-c4ccccn4)c4cccc2c34)C(=O)N1` (stereo not drawn) [23(2), 3-(2-oxo-5-(pyridin-2-yl)benzo[cd]indol-1 (2H)-yl)piperidine-2,6-dione], the EC50 in test [1] is less than 100 nM. The “Levels … (as a % of DMSO control)” value on NEK7-HiBiT protein was “B (Levels of NEK7-HiBiT Protein > 25% and ≤50%)”. Also, in test [2], the activation at 1 µM was greater than 80%.
